“And” between values parts separate entries of the source, which are not always exact repeats. Equal values may be shown once.
Tested on: 156681-154-R-J1-PDC tumor spheroids, viability % test/control
Assay: Anticancer human tumor 156681-154-R-J1-PDC patient-derived melanoma cell line growth inhibition [TAK]
Conditions: spheroids with HUVEC and MSC; for viability, T/C: stronger effect = lower value
Description: Combinatorial screen of targeted agents with TAK-243 and ipatasertib in multi-cell type tumor spheroids
A high-throughput screen of multi-cell type tumor spheroids was designed to identify active combinations of targeted small molecules and TAK-243 or ipatasertib. Complex spheroids include a stromal component modeled by human endothelial cells (HUVEC) and fibroblasts modeled by human mesenchymal stem cells (MSCs). The concentration ranges selected for each drug and investigational agent were based upon clinically achievable concentrations if the clinical Cmax of the agent was known.
Compounds. The drugs and investigational agents: TAK-243 (785004), ipatasertib (767898), everolimus (733504), selumetinib (741078), bortezomib (756655), trametinib (758246), ixazomib (758254), vemurafenib (761431), dabrafenib (764134), sapanisertib (764658), alpelisib (765974), and copanlisib (816437), were obtained from the National Cancer Institute (NCI) Developmental Therapeutics Program Chemical Repository. The FDA-approved anticancer drug set is available from the NCI Developmental Therapeutics Program. […] The stock solutions were prepared in dimethyl sulfoxide (DMSO, Sigma-Aldrich, St. Louis, MO, cat. D2650) at 800-fold the tested concentration and stored at -70 degrees C prior to their use. All drugs and investigational agents were tested over a range starting from a high concentration at or near the clinical Cmax and decreasing in half-log increments. If the clinical Cmax for an agent had not been determined, the highest concentration tested was 10 microM.
NCI60 Cell Culture. NCI60 cell lines were obtained from the NCI Developmental Therapeutics Program Tumor Repository. For each lot of cells, the Repository performed Applied Biosystems AmpFLSTR Identifiler testing with PCR amplification to confirm consistency with the published Identifier STR profile for each cell line. Cells were kept in continuous culture for no more than 20 passages. The optimal seeding densities for each of the cell lines at each time point assessed were determined prior to performing the concentration response studies. Briefly, the NCI60 human tumor lines were grown as monolayers in RPMI 1640 medium supplemented with 10% FBS and 2 mmol/L L-glutamine.
An additional 2 lines were from the NCI60 cell line panel including melanomas, MALME-3M and SK-MEL-2. Pooled donor human umbilical vein endothelial cells (HUVEC, Lonza, cat. CC-2519) and human mesenchymal stem cells (hMSC, Lonza, cat. PT-2501) were purchased from Lonza (Walkersville, MD).
PDMR cell lines were grown in complete medium (DC medium): Dulbecco's modified Eagle's medium (DMEM)/F12 supplemented with 5% fetal bovine serum (FBS), 2 mM L-glutamine, 100 U/mL penicillin and 100 µg/ml streptomycin, 0.4 µg/ml hydrocortisone, 10 ng/ml epidermal growth factor (EGF) recombinant human protein, 24 µg/mL adenine, and 0.1 mg/mL primocin. During culture from frozen stock vials, PDMR cells were cultured in the same medium containing 10 µM Y-27632 (see Table 3). The PDCs were cultured in complete DMEM/F12 media without 10 microM Y-27632 dihydrochloride for at least two passages prior to the screen. The pooled donor HUVEC and hMSC were cultured in endothelial cell growth medium 2 (PromoCell, Heidelberg, Germany, cat. C-22011) and mesenchymal stem cell growth medium 2 (PromoCell, cat. C-28009), respectively. For all experiments, HUVEC and hMSC were used at passages </=5.
For the pre-screen, cell seeding densities were determined from a titration spanning the range from 5,000 to 313 cells per well. The mct-spheroids including 60% malignant cells, 25% HUVEC and 15% MSC dispensed as a mixture into U-bottom Ultra-Low Attachment 384-well plates (Corning, NY)
High-throughput Drug Combination Screening.
Prior to their inoculation into 384-well plates, malignant cells, HUVEC, and hMSC were removed from T flasks using TrypLE express (Thermo Fisher Scientific, cat. 12605036) and harvested by centrifugation for 5 min at 233 x g. […]

[1] = curve of first compound, second compound 0.3 µM
[2] = curve of first compound, second compound 0.949 µM
[3] = curve of first compound, second compound 3 µM
[4] = curve of first compound, second compound 9.49 µM
[5] = curve of first compound, second compound 30 µM
[6] = second compound 0.3 µM, first compound 0.0316 µM
[7] = second compound 0.3 µM, first compound 0.1 µM
[8] = second compound 0.3 µM, first compound 0.316 µM
[9] = second compound 0.3 µM, first compound 1 µM
[10] = second compound 0.3 µM, first compound 3.16 µM
[11] = second compound 0.3 µM, first compound 10 µM
[12] = second compound 0.949 µM, first compound 0.0316 µM
[13] = second compound 0.949 µM, first compound 0.1 µM
[14] = second compound 0.949 µM, first compound 0.316 µM
[15] = second compound 0.949 µM, first compound 1 µM
[16] = second compound 0.949 µM, first compound 3.16 µM
[17] = second compound 0.949 µM, first compound 10 µM
[18] = second compound 3 µM, first compound 0.0316 µM
[19] = second compound 3 µM, first compound 0.1 µM
[20] = second compound 3 µM, first compound 0.316 µM
[21] = second compound 3 µM, first compound 1 µM
[22] = second compound 3 µM, first compound 3.16 µM
[23] = second compound 3 µM, first compound 10 µM
[24] = second compound 9.49 µM, first compound 0.0316 µM
[25] = second compound 9.49 µM, first compound 0.1 µM
[26] = second compound 9.49 µM, first compound 0.316 µM
[27] = second compound 9.49 µM, first compound 1 µM
[28] = second compound 9.49 µM, first compound 3.16 µM
[29] = second compound 9.49 µM, first compound 10 µM
[30] = second compound 30 µM, first compound 0.0316 µM
[31] = second compound 30 µM, first compound 0.1 µM
[32] = second compound 30 µM, first compound 0.316 µM
[33] = second compound 30 µM, first compound 1 µM
[34] = second compound 30 µM, first compound 3.16 µM
[35] = second compound 30 µM, first compound 10 µM
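Also: spheroids exposed to compounds for 7 days before the endpoint.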

SMILES: Cc1nc(NC(=O)N2CCCC2C(N)=O)sc1-c1ccnc(C(C)(C)C(F)(F)F)c1 (configuration not stated) + CC(C)NCC(C(=O)N1CCN(c2ncnc3c2C(C)CC3O)CC1)c1ccc(Cl)cc1
- IC50 [1]: > 10000 nM
- IC50 [2]: 7110 nM
- IC50 [3]: 1460 nM
- IC50 [4]: < 31.6 nM
- IC50 [5]: < 31.6 nM
- viability, T/C [6]: 95.5%
- viability, T/C [7]: 99%
- viability, T/C [8]: 91%
- viability, T/C [9]: 71.5%
- viability, T/C [10]: 67.3%
- viability, T/C [11]: 51.4%
- viability, T/C [12]: 85.8%
- viability, T/C [13]: 83.9%
- viability, T/C [14]: 79%
- viability, T/C [15]: 70.3%
- viability, T/C [16]: 62%
- viability, T/C [17]: 44.9%
- viability, T/C [18]: 69.7%
- viability, T/C [19]: 67.9%
- viability, T/C [20]: 61.5%
- viability, T/C [21]: 53.8%
- viability, T/C [22]: 42.5%
- viability, T/C [23]: 30.6%
- viability, T/C [24]: 39.5%
- viability, T/C [25]: 35.6%
- viability, T/C [26]: 36.6%
- viability, T/C [27]: 26.8%
- viability, T/C [28]: 17.2%
- viability, T/C [29]: 7.68%
- viability, T/C [30]: 18%
- viability, T/C [31]: 18%
- viability, T/C [32]: 11.3%
- viability, T/C [33]: 8.89%
- viability, T/C [34]: 3.83%
- viability, T/C [35]: 0.52%

SMILES: CC(C)(C)c1nc(-c2cccc(NS(=O)(=O)c3c(F)cccc3F)c2F)c(-c2ccnc(N)n2)s1 + CC(C)NCC(C(=O)N1CCN(c2ncnc3c2C(C)CC3O)CC1)c1ccc(Cl)cc1
- IC50 [1]: 239 nM
- IC50 [2]: 214 nM
- IC50 [3]: 148 nM
- IC50 [4]: < 31.6 nM
- IC50 [5]: < 31.6 nM
- viability, T/C [6]: 103%
- viability, T/C [7]: 90.7%
- viability, T/C [8]: 36.9%
- viability, T/C [9]: 14.5%
- viability, T/C [10]: 11.9%
- viability, T/C [11]: 12.7%
- viability, T/C [12]: 90.1%
- viability, T/C [13]: 79%
- viability, T/C [14]: 35.1%
- viability, T/C [15]: 12.7%
- viability, T/C [16]: 8.47%
- viability, T/C [17]: 8.82%
- viability, T/C [18]: 67.6%
- viability, T/C [19]: 62.4%
- viability, T/C [20]: 26.1%
- viability, T/C [21]: 7.91%
- viability, T/C [22]: 5.22%
- viability, T/C [23]: 6.48%
- viability, T/C [24]: 40.1%
- viability, T/C [25]: 31.7%
- viability, T/C [26]: 17.3%
- viability, T/C [27]: 6.56%
- viability, T/C [28]: 3.41%
- viability, T/C [29]: 3.45%
- viability, T/C [30]: 15.6%
- viability, T/C [31]: 13%
- viability, T/C [32]: 7.77%
- viability, T/C [33]: 2.12%
- viability, T/C [34]: 1.1%
- viability, T/C [35]: 1.52%

SMILES: CC(C)CC(NC(=O)CNC(=O)c1cc(Cl)ccc1Cl)B1OC(=O)CC(CC(=O)O)(C(=O)O)O1 (configuration not stated)
- viability, T/C (compound 0.000316 µM): 104% and 94.9%
- viability, T/C (compound 0.001 µM): 101% and 104%
- viability, T/C (compound 0.00316 µM): 99.5% and 101%
- viability, T/C (compound 0.01 µM): 95.7% and 90.9%
- viability, T/C (compound 0.0316 µM): 18.1% and 10.3%
- viability, T/C (compound 0.1 µM): 0.44% and 0.46%
- IC50 (curve of compound): 19.7 nM and 17.9 nM
